From US20210230159A1, “4H-PYRIDO[1,2-A]PYRIMIDIN-4-ONE COMPOUNDS” (Prana Biotechnology Limited, priority 2014, published 2021)
pIC50: −log10 of the molar value.

Test: Hydrogen peroxide (H2O2) inhibition assay (fluorescence, DCF/horseradish peroxidase)
Assay type: biochemical
Conditions: for Cu % ASC (cf. CQ = 100%) / Zn % ASC (cf. CQ = 100%) / Fe-ASC % (cf. 0.4 uM Fe/Asc; cf. CQ, CQ = 100%): ascorbic acid as reducing substrate; for pIC50: HCl salt tested where HCl salt MW is given; for Fe-DA % (cf. 0.4 uM Fe/DA; cf. CQ, CQ = 100%): dopamine as reducing substrate; for Fe-DA % (cf. 0.4 uM Fe/DA; cf. CQ, CQ = 100%) / Fe-ASC % (cf. 0.4 uM Fe/Asc; cf. CQ, CQ = 100%): test compound 0.4 μM, lower values = greater inhibition of H2O2
Procedure: Assay 1. Hydrogen Peroxide Assay
H2O2 is a strong oxidizer and a highly reactive oxygen species that is known to be toxic to surrounding proteins and organelles, inhibiting their function. […] […] H2O2 generated by the system is assessed by measuring the specific fluorescence profile at the excitation and emission wavelengths of 485 and 530 nm respectively, in the presence of test compound. Test compounds were dissolved in DMSO and tested at concentrations of 0.4 μM. Test compounds are ranked according to their capacity to inhibit H2O2 generated by the system where lower values reflect greater ability to inhibit H2O2 production.

SMILES	Cu % ASC (cf. CQ = 100%)	pIC50	Zn % ASC (cf. CQ = 100%)	Fe-DA % (cf. 0.4 uM Fe/DA; cf. CQ, CQ = 100%) [%]	Fe-ASC % (cf. 0.4 uM Fe/Asc; cf. CQ, CQ = 100%) [% ASC]
CC(C)CNC(=O)c1cnc2c(O)cccn2c1=O [Compound 1425]	Cu 212% ASC	6.47	Zn 69% ASC	76	
O=C(NCCN1CCCC1)c1cnc2c(O)cccn2c1=O [Compound 1426]	Cu 212% ASC	6.49	Zn 121% ASC	62	
O=C(NCCc1ccccn1)c1cnc2c(O)cccn2c1=O [Compound 1427]	Cu 212% ASC	6.74	Zn 61% ASC	74	
O=C(NCC1CC1)c1cnc2c(O)cccn2c1=O [Compound 1428]	Cu 212% ASC	6.37	Zn 74% ASC	75	
O=C(NCc1ccc(Cl)cc1)c1cnc2c(O)cccn2c1=O [Compound 1429]	Cu 54% ASC	6.41	Zn 57% ASC	148	
O=C(NCc1ccc2c(c1)OCO2)c1cnc2c(O)cccn2c1=O [Compound 1432]		6.39		66	65
CCNC(=O)c1cnc2c(O)cccn2c1=O [Compound 1433]		6.41		73	152
O=c1cc(CNC2CCCC2)nc2c(O)cccn12 [Compound 1435]		6.64		90	133
O=C(NC1CCCC1)c1cnc2c(O)cccn2c1=O [Compound 1436]		6.68		101	190
O=C(NCc1ccc(F)cc1F)c1cnc2c(O)cccn2c1=O [Compound 1437]		6.33		71	71
CCCCCCNCc1cc(=O)n2cccc(O)c2n1 [Compound 1438]		6.62		47	143
CCN(CC)Cc1cc(=O)n2cccc(O)c2n1 [Compound 1439]		< 5.00		68	156
CCCCCCNC(=O)c1cnc2c(O)cccn2c1=O [Compound 1440]		6.16		48	66
O=c1cc(CNCc2ccccc2)nc2c(O)cccn12 [Compound 1442]		6.62		58	128
COc1ccc(CNCc2cc(=O)n3cccc(O)c3n2)cc1 [Compound 1443]		6.60		52	116
O=c1cc(CNc2ccc(F)cc2F)nc2c(O)cccn12 [Compound 1444]		6.46		53	105
CNC(=O)c1cnc2c(O)cccn2c1=O [Compound 1445]		> 7.00		45	176
O=C(NCc1cccnc1)c1cnc2c(O)cccn2c1=O [Compound 1446]		6.47		56	218
O=C(NCc1ccccn1)c1cnc2c(O)cccn2c1=O [Compound 1447]		6.62		52	112
O=c1cc(CNc2cccnc2)nc2c(O)cccn12 [Compound 1448]		6.34		66	137

SMILES	Cu % ASC (cf. CQ = 100%)	pIC50	Zn % ASC (cf. CQ = 100%)	Fe-DA % (cf. 0.4 uM Fe/DA; cf. CQ, CQ = 100%) [%]	Fe-ASC % (cf. 0.4 uM Fe/Asc; cf. CQ, CQ = 100%) [% ASC]
O=C(NCc1ccncc1)c1cnc2c(O)cccn2c1=O [Compound 1450]		6.42		55	126
O=c1cc(CNc2ccc(F)cc2)nc2c(O)cccn12 [Compound 1451]		6.24		67	136
O=C(NCc1ccc(Cl)cc1Cl)c1cnc2c(O)cccn2c1=O [Compound 1452]		6.27		49	60
O=C(NCc1ccc(C(F)(F)F)cc1)c1cnc2c(O)cccn2c1=O [Compound 1453]		6.47		59	79
O=C(NCc1ccc(F)c(F)c1)c1cnc2c(O)cccn2c1=O [Compound 1454]		6.00		46	65
O=c1cc(CNCc2ccc(C(F)(F)F)cc2)nc2c(O)cccn12 [Compound 1455]		6.46		47	82
O=c1cc(CNC2CCCCC2)nc2c(O)cccn12 [Compound 1456]		6.41		58	122
O=c1cc(CNCC2CCCCC2)nc2c(O)cccn12 [Compound 1458]		6.24		43	137
O=c1cc(CNCc2ccc(F)c(F)c2)nc2c(O)cccn12 [Compound 1459]		6.48		48	110
O=C(NC1CCCCC1)c1cnc2c(O)cccn2c1=O [Compound 1460, N-cyclohexyl-9-hydroxy-4-oxo-4H-pyrido[1,2-a]pyrimidine-3-carboxamide]		6.36		29	92
O=C(NCC1CCCCC1)c1cnc2c(O)cccn2c1=O [Compound 1461]		6.31		57	59
CCCCCCCNC(=O)C1=CNC2C(O)=CC=CN2C1=O (centres unmarked) [Compound 1462]		6.34		54	72
COc1ccc(CNCc2cc(=O)n3cccc(O)c3n2)cc1OC [Compound 1463]		6.23		73	158
O=c1cc(CNCc2ccc(OC(F)(F)F)cc2)nc2c(O)cccn12 [Compound 1464]		6.33		47	135
Cc1ccc(O)c2nc(CN(C)C)cc(=O)n12 [Compound 1466]		6.47		47	>234
Cc1ccc(O)c2nc(CNCc3ccc(F)cc3)cc(=O)n12 [Compound 1467]		6.36		42	74
Cc1ccc(O)c2nc(CNC3CCCCC3)cc(=O)n12 [Compound 1468]		6.68		39	169
Cc1ccc(O)c2nc(CNCc3ccc(Cl)cc3)cc(=O)n12 [Compound 1469]		6.30		43	63
CCCNCc1cc(=O)n2c(C)ccc(O)c2n1 [Compound 1470]		6.46		38	>234
Cc1ccc(O)c2nc(CN3CCCCC3)cc(=O)n12 [Compound 1471]		6.52		62	125
